This assay can be described thus: Replicon Assay (luciferase, ET cell line). To be noted: Hepatitis C virus; % inhibition of replication relative to no compound control, test concentration of 10 μM; ET cells, luciferase read 48-72 hours; read-out: % inhib at 10 uM. Type of assay: cell-based, HCV. Here is the method:
A cell line, ET (Huh-lucubineo-ET) was used for screening of compounds of the present invention for HCV RNA dependent RNA polymerase. The ET cell line was stably transfected with RNA transcripts harboring a I389luc-ubi-neo/NS3-3′/ET; replicon with firefly luciferase-ubiquitin-neomycin phosphotransferase fusion protein and EMCV-IRES driven NS3-5B polyprotein containing the cell culture adaptive mutations (E1202G; T1280I; K1846T) (Krieger at al, 2001 and unpublished). The ET cells were grown in DMEM, supplemented with 10% fetal calf serum, 2 mM Glutamine, Penicillin (100 IU/mL)/Stretomycin (100 μg/mL), 1× nonessential amino acids, and 250 μg/mL G418 (“Geneticin”). They were all available through Life Technologies (Bethesda, Md.). The cells were plated at 0.5−1.0×10^4 cells/well in the 96 well plates and incubated for 24 hrs before adding nucleoside analogs. […] Luciferase activity were measured 48-72 hours later by adding a lysis buffer and the substrate (Catalog number Glo-lysis buffer E2661 and Bright-Glo luciferase system E2620 Promega, Madison, Wis.). Cells should not be too confluent during the assay. Percent inhibition of replication was plotted relative to no compound control. Under the same condition, cytotoxicity of the compounds was determined using cell proliferation reagent, WST-1 (Roche, Germany). The compounds showing antiviral activities, but no significant cytotoxicities were chosen to determine IC50 and TC50. For these determinations, 10 concentration of each compound were used. Concentrations for test compounds typically span a range of 500 fold. IC50 and TC50 values were calculated by fitting % inhibition at each concentration (I) to the following equation: % inhibition=100%/[1+10^(log IC50−log(I))*b] where b is Hill's coefficient.
On the technique in general: Replicon systems follow genome replication, usually without infectious particles.

Consider `CNc1cccc(-c2cccc(NC(=O)[C@@H]3CCCN3C(=O)OCc3ccccc3)c2)c1` [Compound 6089, 2-(3′-Methylamino-biphenyl-3-ylcarbamoyl)-pyrrolidine-1-carboxylic acid benzyl ester], for which the inhibition at 10 µM was 76.4%. Consider `Cc1c(N)cccc1-c1cccc(NC(=O)[C@@H]2CCCN2C(=O)OCc2ccccc2)c1` [Compound 6090, 2-(3′-Amino-2′-methyl-biphenyl-3-ylcarbamoyl)-pyrrolidine-1-carboxylic acid benzyl ester], for which the inhibition at 10 µM is 59.6%.

Turning to `Cc1nc2cc(-c3cccc(NC(=O)[C@@H]4CCCN4C(=O)OCc4ccccc4)c3)ccc2s1` [Compound 6091, 2-[3-(2-Methyl-benzothiazol-5-yl)-phenylcarbamoyl]-pyrrolidine-1-carboxylic acid benzyl ester], the inhibition at 10 µM amounted to 97.7%. `O=C(Nc1cccc(-c2cccc(O)c2)c1)[C@@H]1CCCN1C(=O)OCc1ccccc1` [Compound 6092, 2-(3′-Hydroxy-biphenyl-3-ylcarbamoyl)-pyrrolidine-1-carboxylic acid benzyl ester]: the inhibition at 10 µM was determined as 95.3%. On to `NC(=O)Nc1cccc(-c2cccc(NC(=O)[C@@H]3CCCN3C(=O)OCc3ccccc3)c2)c1` [Compound 6093, 2-(3′-Ureido-biphenyl-3-ylcarbamoyl)-pyrrolidine-1-carboxylic acid benzyl ester], for which the inhibition at 10 µM stood at 98.1%. The figure for `O=C(Nc1cccc(-c2cccc3cc[nH]c23)c1)[C@@H]1CCCN1C(=O)OCc1ccccc1` [Compound 6094, 2-[3-(1H-Indol-7-yl)-phenylcarbamoyl]-pyrrolidine-1-carboxylic acid benzyl ester] is 98.8%; for `Nc1cc(-c2cccc(NC(=O)[C@@H]3CCCN3C(=O)OCc3ccccc3)c2)cc(C(F)(F)F)c1` [Compound 6095, 2-(3′-Amino-5′-trifluoromethyl-biphenyl-3-ylcarbamoyl)-pyrrolidine-1-carboxylic acid benzyl ester] it is 61.6%; for `CN(C)c1cccc(-c2cccc(NC(=O)[C@@H]3CCCN3C(=O)OCc3ccccc3)c2)c1` [Compound 6096, 2-(3′-Dimethylamino-biphenyl-3-ylcarbamoyl)-pyrrolidine-1-carboxylic acid benzyl ester] it is 53.3%. The figure for `O=C(Nc1cccc(-c2ccc3cc[nH]c3c2)c1)[C@@H]1CCCN1C(=O)OCc1ccccc1` [Compound 6097, 2-[3-(1H-Indol-6-yl)-phenylcarbamoyl]-pyrrolidine-1-carboxylic acid benzyl ester] is 99.8%. To `O=C(NC1CC1)c1ccc(-c2cccc(NC(=O)[C@@H]3CCCN3C(=O)OCc3ccccc3)c2)cc1` [Compound 6301, 2-(4′-Cyclopropylcarbamoyl-biphenyl-3-ylcarbamoyl)-pyrrolidine-1-carboxylic acid benzyl ester] belongs 99.1%; to `O=C(NC1CC1)c1csc(-c2cccc(NC(=O)[C@@H]3CCCN3C(=O)OCc3ccccc3)c2)n1` [Compound 6302, 2-[3-(4-Cyclopropylcarbamoyl-thiazol-2-yl)-phenylcarbamoyl]-pyrrolidine-1-carboxylic acid benzyl ester], 12.2%; to `O=C(Nc1cccc(-c2ccc3ncsc3c2)c1)[C@@H]1CCCN1C(=O)OCc1ccccc1` [Compound 6304, 2-(3-Benzothiazol-6-yl-phenylcarbamoyl)-pyrrolidine-1-carboxylic acid benzyl ester], 70.4%.

As for `O=C(NC1CC1)c1ccc(NC(=O)[C@@H]2CCCN2C(=O)OCc2ccccc2)cc1` [Compound 6305, 2-(4-Cyclopropylcarbamoyl-phenylcarbamoyl)-pyrrolidine-1-carboxylic acid benzyl ester], the inhibition at 10 µM was 88.2%. As for `N#Cc1cccc(-c2cccc(NC(=O)[C@@H]3CCCN3C(=O)OCc3ccccc3)c2)c1` [Compound 6307, 2-(3′-Cyano-biphenyl-3-ylcarbamoyl)-pyrrolidine-1-carboxylic acid benzyl ester], the inhibition at 10 µM was found to be 32.3%. As to `O=C(NCc1ccc(-c2cccc(NC(=O)[C@@H]3CCCN3C(=O)OCc3ccccc3)c2)cc1)C1CC1` [Compound 6308, 2-{4′-[(Cyclopropanecarbonyl-amino)-methyl]-biphenyl-3-ylcarbamoyl}-pyrrolidine-1-carboxylic acid benzyl ester], the inhibition at 10 µM came out at 56.2%. Turning to `O=C(Nc1cccc(-c2cccc([N+](=O)[O-])c2)c1)[C@@H]1CCCN1C(=O)OCc1ccccc1` [Compound 6309, 2-(3′-Nitro-biphenyl-3-ylcarbamoyl)-pyrrolidine-1-carboxylic acid benzyl ester], the inhibition at 10 µM stood at 99.8%. On to `O=C(NC1CC1)c1cccc(-c2cccc(NC(=O)[C@@H]3CCCN3C(=O)OCc3ccccc3)c2)c1` [Compound 6310, 2-(3′-Cyclopropylcarbamoyl-biphenyl-3-ylcarbamoyl)-pyrrolidine-1-carboxylic acid benzyl ester], for which the inhibition at 10 µM came to 78.4%. As for `O=C(NCc1cccc(-c2cccc(NC(=O)[C@@H]3CCCN3C(=O)OCc3ccccc3)c2)c1)C1CC1` [Compound 6311, 2-{3′-[(Cyclopropanecarbonyl-amino)-methyl]-biphenyl-3-ylcarbamoyl}-pyrrolidine-1-carboxylic acid benzyl ester], the inhibition at 10 µM worked out at 94.2%. As for `O=C(Cc1cccc(-c2cccc(NC(=O)[C@@H]3CCCN3C(=O)OCc3ccccc3)c2)c1)NC1CC1` [Compound 6312, 2-(3′-Cyclopropylcarbamoylmethyl-biphenyl-3-ylcarbamoyl)-pyrrolidine-1-carboxylic acid benzyl ester], the inhibition at 10 µM is 68.6%.

(Values after US7629340B2, “N-(6-membered aromatic ring)-amido anti-viral compounds” (SmithKline Beecham Corporation, priority 2005, dated 2009).)
